Experimental data from patent US10294202B2, “Pyrrolidinones as herbicides” (FMC Corporation, priority 2013, dated 2019).
Where two headings read alike, the source gives them in different places.

Assays:
giant foxtail = experiment: Test A pre-/postemergence herbicide test; type: in vivo, Setaria faberii; details: for Foxtail, Giant plant response rating: Preemergence, visual rating on 0 to 100 scale (0 no effect, 100 complete control)
Procedure, shortened: (§1)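 Approximately 10 days after treatment in the greenhouse, plants were compared with untreated controls and given a 0–100 visual injury rating. Applications: preemergence directed soil spray; postemergence on 2–10 cm plants at the one- to two-leaf stage.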

ryegrass, Italian = experiment: Test C pre-/postemergence herbicide test; type: in vivo, Lolium multiflorum; details: for Ryegrass, Italian plant response rating: scale 0 to 100, 0 is no effect and 100 is complete control
Procedure, shortened: (§2)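 Plants grown and held in a greenhouse for 13 to 15 days post-spray, then rated 0–100 by visual comparison with controls. Pre treatments targeted seeds in loam and sand; post treatments targeted 1- to 4-leaf plants in peat-based potting medium.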

johnsongrass = experiment: Test C pre-/postemergence herbicide test; type: in vivo, Sorghum halepense; details: for Johnsongrass plant response rating: scale 0 to 100, 0 is no effect and 100 is complete control
Procedure, shortened: as §2

corn = experiment: Test A pre-/postemergence herbicide test; type: in vivo, Zea mays
Procedure, shortened: as §1

ragweed = experiment: Test C pre-/postemergence herbicide test; type: in vivo, Ambrosia elatior
Procedure, shortened: as §2

nutsedge, yellow = experiment: Test C pre-/postemergence herbicide test; type: in vivo, Cyperus esculentus; details: for Nutsedge, Yellow plant response rating: scale 0 to 100, 0 is no effect and 100 is complete control
Procedure, shortened: as §2

rice = experiment: Test B flooded paddy test; type: in vivo, Oryza sativa; details: Flood, scale of 0 to 100 where 0 is no effect and 100 is complete control
Procedure, shortened: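 Visual ratings from 0, meaning no effect, up to 100, meaning complete control, were made by comparison with untreated controls 13 to 15 days after treatment. Test compounds went straight into floodwater standing 3 cm over the soil of pots holding 2-leaf seedlings.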

galium = experiment: Test C pre-/postemergence herbicide test; type: in vivo, Galium aparine; details: for Galium plant response rating: scale 0 to 100, 0 is no effect and 100 is complete control
Procedure, shortened: as §2

waterhemp = experiment: Test C pre-/postemergence herbicide test; type: in vivo, Amaranthus rudis; details: for Waterhemp plant response rating: scale 0 to 100, 0 is no effect and 100 is complete control
Procedure, shortened: as §2

pigweed [1] = experiment: Test A pre-/postemergence herbicide test; type: in vivo, Amaranthus retroflexus; details: for Pigweed plant response rating: Preemergence, visual rating on 0 to 100 scale (0 no effect, 100 complete control)
Procedure, shortened: as §1

pigweed [2] = experiment: Test C pre-/postemergence herbicide test; type: in vivo, Amaranthus retroflexus; details: for Pigweed plant response rating: scale 0 to 100, 0 is no effect and 100 is complete control
Procedure, shortened: as §2

[3] = Postemergence, 125 g ai/ha, 0 to 100 scale, 0 no effect, 100 complete control
[4] = Postemergence, 500 g ai/ha, 0 to 100 scale (0 no effect, 100 complete control)
[5] = preemergence, 500 g ai/ha, 0 to 100 scale
[6] = Postemergence, 31 g ai/ha, scale 0 (no effect) to 100 (complete control)
[7] = Postemergence, 62 g ai/ha, scale 0 to 100 (0 no effect, 100 complete control)
[8] = Postemergence, 125 g ai/ha, scale 0 to 100 (0 no effect, 100 complete control)
[9] = Postemergence, 250 g ai/ha, scale 0 to 100 (0 no effect, 100 complete control)
[10] = Preemergence, 62 g ai/ha, scale 0 to 100
[11] = Preemergence, 125 g ai/ha, scale 0 to 100 (0 no effect, 100 complete control)

SMILES: Cc1ccccc1NC(=O)C1C(=O)NCC1c1cccc(C(F)(F)F)c1 (racemic) [Compound 109]
- Plant response rating, Foxtail, Giant (giant foxtail; [3]): 90
- Plant response rating, Foxtail, Giant (giant foxtail; [4]): 90
- Foxtail, Giant plant response rating (giant foxtail; 125 g ai/ha): 90
- Plant response rating, Foxtail, Giant (giant foxtail; [5]): 90
- Plant response rating, Ryegrass, Italian (ryegrass, Italian; [6]): 0
- Plant response rating, Ryegrass, Italian (ryegrass, Italian; [7]): 0
- Plant response rating, Ryegrass, Italian (ryegrass, Italian; [8]): 0
- Plant response rating, Ryegrass, Italian (ryegrass, Italian; [9]): 0
- Ryegrass, Italian plant response rating (ryegrass, Italian; Preemergence, 31 g ai/ha): 0
- Plant response rating, Ryegrass, Italian (ryegrass, Italian; [10]): 40
- Plant response rating, Ryegrass, Italian (ryegrass, Italian; [11]): 20
- Plant response rating (scale of 0 to 100), Ryegrass, Italian (ryegrass, Italian; Preemergence, 250 g ai/ha): 70
- Plant response rating, Johnsongrass (johnsongrass; [6]): 0
- Plant response rating, Johnsongrass (johnsongrass; [7]): 0
- Plant response rating, Johnsongrass (johnsongrass; [8]): 0
- Plant response rating, Johnsongrass (johnsongrass; [9]): 0
- Johnsongrass plant response rating (johnsongrass; Preemergence, 31 g ai/ha): 0
- Plant response rating, Johnsongrass (johnsongrass; [10]): 10
- Plant response rating, Johnsongrass (johnsongrass; [11]): 40
- Plant response rating (scale of 0 to 100), Johnsongrass (johnsongrass; Preemergence, 250 g ai/ha): 70
- Plant response rating, Corn (corn; [3]): 50
- Plant response rating, Corn (corn; [4]): 80
- Plant response rating, Ragweed (ragweed; [6]): 0
- Plant response rating, Ragweed (ragweed; [7]): 0
- Plant response rating, Ragweed (ragweed; [8]): 0
- Plant response rating, Ragweed (ragweed; [9]): 5
- Ragweed plant response rating (ragweed; Preemergence, 31 g ai/ha, scale 0 to 100, 0 is no effect and 100 is complete control): 0
- Plant response rating, Ragweed (ragweed; [10]): 0
- Plant response rating, Ragweed (ragweed; [11]): 0
- Plant response rating (scale of 0 to 100), Ragweed (ragweed; Preemergence, 250 g ai/ha): 10
- Plant response rating, Nutsedge, Yellow (nutsedge, yellow; [6]): 0
- Plant response rating, Nutsedge, Yellow (nutsedge, yellow; [7]): 0
- Plant response rating, Nutsedge, Yellow (nutsedge, yellow; [8]): 0
- Plant response rating, Nutsedge, Yellow (nutsedge, yellow; [9]): 0
- Nutsedge, Yellow plant response rating (nutsedge, yellow; Preemergence, 31 g ai/ha): 0
- Plant response rating, Nutsedge, Yellow (nutsedge, yellow; [10]): 5
- Plant response rating, Nutsedge, Yellow (nutsedge, yellow; [11]): 0
- Plant response rating (scale of 0 to 100), Nutsedge, Yellow (nutsedge, yellow; Preemergence, 250 g ai/ha): 5
- Plant response rating, Rice (rice; 1000 g ai/ha): 0
- Plant response rating, Galium (galium; [6]): 0
- Plant response rating, Galium (galium; [7]): 0
- Plant response rating, Galium (galium; [8]): 30
- Plant response rating, Galium (galium; [9]): 30
- Galium plant response rating (galium; Preemergence, 31 g ai/ha): 60
- Plant response rating, Galium (galium; [10]): 100
- Plant response rating, Galium (galium; [11]): 50
- Plant response rating (scale of 0 to 100), Galium (galium; Preemergence, 250 g ai/ha): 100
- Plant response rating, Waterhemp (waterhemp; [6]): 0
- Plant response rating, Waterhemp (waterhemp; [7]): 0
- Plant response rating, Waterhemp (waterhemp; [8]): 0
- Plant response rating, Waterhemp (waterhemp; [9]): 0
- Waterhemp plant response rating (waterhemp; Preemergence, 31 g ai/ha): 0
- Plant response rating, Waterhemp (waterhemp; [10]): 50
- Plant response rating, Waterhemp (waterhemp; [11]): 0
- Plant response rating (scale of 0 to 100), Waterhemp (waterhemp; Preemergence, 250 g ai/ha): 20
- Plant response rating, Pigweed (pigweed [1]; [3]): 0
- Plant response rating, Pigweed (pigweed [1]; [4]): 0
- Pigweed plant response rating (pigweed [1]; 125 g ai/ha): 0
- Plant response rating, Pigweed (pigweed [1]; [5]): 0
- Plant response rating, Pigweed (pigweed [2]; [6]): 5
- Plant response rating, Pigweed (pigweed [2]; [7]): 5
- Plant response rating, Pigweed (pigweed [2]; [8]): 5
- Plant response rating, Pigweed (pigweed [2]; [9]): 10
- Pigweed plant response rating (pigweed [2]; Preemergence, 31 g ai/ha): 30
- Plant response rating, Pigweed (pigweed [2]; [10]): 0
- Plant response rating, Pigweed (pigweed [2]; [11]): 0
- Plant response rating (scale of 0 to 100), Pigweed (pigweed [2]; Preemergence, 250 g ai/ha): 20

SMILES: O=C1NCC(c2ccc(C(F)(F)F)cc2)C1C(=O)Nc1ccccc1F (centres unmarked) [Compound 79, N-(2-fluorophenyl)-2-oxo-4-[4-(trifluoromethyl)phenyl]-3-pyrrolidinecarboxamide]
- Foxtail, Giant plant response rating (giant foxtail; 125 g ai/ha): 90
- pest or weed control at 125 g/ha (giant foxtail; Setaria faberi, post-emergence, 240 h, Postemergence, 125 g ai/ha, 0 to 100 scale, 0 no effect, 100 complete control, read-out: Plant response rating, Foxtail, Giant): 80%
- pest or weed control at 500 g/ha (giant foxtail; Setaria faberi, post-emergence, 240 h, Postemergence, 500 g ai/ha, 0 to 100 scale (0 no effect, 100 complete control), read-out: Plant response rating, Foxtail, Giant): 80%
- pest or weed control at 500 g/ha (giant foxtail; Setaria faberi, pre-emergence, 240 h, preemergence, 500 g ai/ha, 0 to 100 scale, read-out: Plant response rating, Foxtail, Giant): 90%
- Plant response rating, Ryegrass, Italian (ryegrass, Italian; [6]): 0
- Plant response rating, Ryegrass, Italian (ryegrass, Italian; [7]): 0
- Plant response rating, Ryegrass, Italian (ryegrass, Italian; [8]): 0
- Plant response rating, Ryegrass, Italian (ryegrass, Italian; [9]): 0
- Ryegrass, Italian plant response rating (ryegrass, Italian; Preemergence, 31 g ai/ha): 0
- Plant response rating, Ryegrass, Italian (ryegrass, Italian; [10]): 5
- Plant response rating, Ryegrass, Italian (ryegrass, Italian; [11]): 30
- Plant response rating (scale of 0 to 100), Ryegrass, Italian (ryegrass, Italian; Preemergence, 250 g ai/ha): 30
- Plant response rating, Johnsongrass (johnsongrass; [6]): 0
- Plant response rating, Johnsongrass (johnsongrass; [7]): 0
- Plant response rating, Johnsongrass (johnsongrass; [8]): 0
- Plant response rating, Johnsongrass (johnsongrass; [9]): 5
- Johnsongrass plant response rating (johnsongrass; Preemergence, 31 g ai/ha): 0
- Plant response rating, Johnsongrass (johnsongrass; [10]): 0
- Plant response rating, Johnsongrass (johnsongrass; [11]): 10
- Plant response rating (scale of 0 to 100), Johnsongrass (johnsongrass; Preemergence, 250 g ai/ha): 10
- Corn plant response rating (corn; Preemergence, 125 g ai/ha, visual rating on 0 to 100 scale (0 no effect, 100 complete control)): 0
- Corn plant response rating (crop injury, 0 = no effect, 100 = complete kill) at 125 g/ha (corn; Zea mays, post-emergence, 240 h, Postemergence, 125 g ai/ha, 0 to 100 scale, 0 no effect, 100 complete control): 20%
- Corn plant response rating (crop injury, 0 = no effect, 100 = complete kill) at 500 g/ha (corn; Zea mays, post-emergence, 240 h, Postemergence, 500 g ai/ha, 0 to 100 scale (0 no effect, 100 complete control)): 70%
- Corn plant response rating (crop injury, 0 = no effect, 100 = complete kill) at 500 g/ha (corn; Zea mays, pre-emergence, 240 h, preemergence, 500 g ai/ha, 0 to 100 scale): 0%
- Plant response rating, Ragweed (ragweed; [6]): 20
- Plant response rating, Ragweed (ragweed; [7]): 20
- Plant response rating, Ragweed (ragweed; [8]): 20
- Plant response rating, Ragweed (ragweed; [9]): 45
- Plant response rating, Nutsedge, Yellow (nutsedge, yellow; [6]): 0
- Plant response rating, Nutsedge, Yellow (nutsedge, yellow; [7]): 0
- Plant response rating, Nutsedge, Yellow (nutsedge, yellow; [8]): 0
- Plant response rating, Nutsedge, Yellow (nutsedge, yellow; [9]): 0
- Nutsedge, Yellow plant response rating (nutsedge, yellow; Preemergence, 31 g ai/ha): 0
- Plant response rating, Nutsedge, Yellow (nutsedge, yellow; [10]): 0
- Plant response rating, Nutsedge, Yellow (nutsedge, yellow; [11]): 0
- Plant response rating (scale of 0 to 100), Nutsedge, Yellow (nutsedge, yellow; Preemergence, 250 g ai/ha): 0
- Plant response rating, Rice (rice; 250 g ai/ha): 0
- Plant response rating, Galium (galium; [6]): 30
- Plant response rating, Galium (galium; [7]): 60
- Plant response rating, Galium (galium; [8]): 60
- Galium plant response rating (galium; Preemergence, 31 g ai/ha): 0
- Plant response rating, Galium (galium; [10]): 5
- Plant response rating, Galium (galium; [11]): 85
- Plant response rating (scale of 0 to 100), Galium (galium; Preemergence, 250 g ai/ha): 90
- Plant response rating, Waterhemp (waterhemp; [6]): 10
- Plant response rating, Waterhemp (waterhemp; [7]): 10
- Plant response rating, Waterhemp (waterhemp; [8]): 10
- Plant response rating, Waterhemp (waterhemp; [9]): 30
- Waterhemp plant response rating (waterhemp; Preemergence, 31 g ai/ha): 25
- Plant response rating, Waterhemp (waterhemp; [10]): 40
- Plant response rating, Waterhemp (waterhemp; [11]): 80
- Plant response rating (scale of 0 to 100), Waterhemp (waterhemp; Preemergence, 250 g ai/ha): 85
- pest or weed control at 125 g/ha (pigweed [1]; Amaranthus retroflexus, post-emergence, 240 h, Postemergence, 125 g ai/ha, 0 to 100 scale, 0 no effect, 100 complete control, read-out: Plant response rating, Pigweed): 70%
- pest or weed control at 500 g/ha (pigweed [1]; Amaranthus retroflexus, post-emergence, 240 h, Postemergence, 500 g ai/ha, 0 to 100 scale (0 no effect, 100 complete control), read-out: Plant response rating, Pigweed): 70%
- pest or weed control at 500 g/ha (pigweed [1]; Amaranthus retroflexus, pre-emergence, 240 h, preemergence, 500 g ai/ha, 0 to 100 scale, read-out: Plant response rating, Pigweed): 80%
- Pigweed plant response rating (pigweed [1]; 125 g ai/ha): 80
- Plant response rating, Pigweed (pigweed [2]; [6]): 35
- Plant response rating, Pigweed (pigweed [2]; [7]): 35
- Plant response rating, Pigweed (pigweed [2]; [8]): 35
- Plant response rating, Pigweed (pigweed [2]; [9]): 35
- Pigweed plant response rating (pigweed [2]; Preemergence, 31 g ai/ha): 10
- Plant response rating, Pigweed (pigweed [2]; [10]): 40
- Plant response rating, Pigweed (pigweed [2]; [11]): 50
- Plant response rating (scale of 0 to 100), Pigweed (pigweed [2]; Preemergence, 250 g ai/ha): 65
